{"source": "patent US20080317702A1", "about": "“METHOD FOR TREATING MICROORGANISMS AND/OR INFECTIOUS AGENTS” (priority 2007, published 2008)", "test_system": "HeLa cells", "assay": "Toxicity to HeLa cells in culture, MTT (Example 23)", "assay_type": "cell-based, human", "conditions": "48 hours of culture", "protocol": "The toxicity of Example 1 is compared to Chlorohexidine gluconate (a commonly used oral antiseptic) to human HeLa cells in culture is determined. HeLa cells are plated at subconfluency into a 96-well plate tissue culture plate, and after attachment, treated with the indicated final concentrations of Example 1 polymer or Chlorohexidine gluconate in triplicates. After 48 hours of culture, MTT reagent is added for two 2 hours to permit the development of viability-indicating color. 1 μM PAO (phenylarsine oxide) is used as a positive (effective killing) control. […] Furthermore, the minimum inhibitory concentration of Example 1 polymer is found to be about 10^−3% while that for the chlorohexidine gluconate is 6×10^−5%. This means that the Example 1 polymer is about […] less toxic to HeLa cells in culture than chlorohexidine gluconate.", "note": "Several values for one entry are separate records, joined by “and”; a condition that tells them apart may be missing. Identical values can stand only once."}
{"smiles": "N=C(NCCCCCCNC(=N)NC(=N)Nc1ccc(Cl)cc1)NC(=N)Nc1ccc(Cl)cc1.O=C(O)[C@H](O)[C@@H](O)[C@H](O)[C@H](O)CO.O=C(O)[C@H](O)[C@@H](O)[C@H](O)[C@H](O)CO", "note": "[chlorohexidine gluconate]", "values": [{"measurement": "Lethal dose 50 (LD50) for HeLa cells", "value": "~0.0004% and > 1.2×10^−4%"}]}
